The values below come from a melting point compilation (Tetko et al.; mined from patent text by program, amines drawn as free bases though some values may be those of a salt).

`O=Cc1sccc1-c1noc2ccccc12`: the melting point – broadly, the temperature, or range, at which the solid turns liquid – lay within 173 to 174 °C.
`O=c1[nH]c2ncc(Cl)cc2o1` showed a melting point of 184 to 186 °C.
As for `CCCCCCC(=O)c1cn(CCCC(=O)O)c2ccccc12`, the melting point lay within 58 to 60 °C.
The result for `CCOC(=O)C(=O)N(CCO)N=Cc1ccccc1` reads 96 to 98 °C; that for `O=C(O)CCc1cn(Cc2cccc(C(=O)Nc3cccnc3)c2)nc1-c1ccccc1`, 131 to 132 °C; that for `CCC(=O)N(Cc1cccc2c1S(=O)(=O)N=C2C1=C(O)C(C(C)(C)C)N(Cc2ccc(F)c(C)c2)C1=O)S(C)(=O)=O` (centres undefined), 98 to 99.8 °C.
The result for `CCOC(=O)Cc1ccc(NC(=O)C(Cn2ccnc2)NS(=O)(=O)c2ccc(F)cc2)cc1` (racemic) reads 155 to 157 °C; that for `CCCC(CCC)NC(=O)c1ccc2oc(OC)nc2c1`, 137 to 138 °C; that for `C[C@@H](CO)Oc1ccc2cc(Br)ccc2c1`, 71 to 72 °C.
With `CSc1c(C(=O)NN=Cc2ccc(Cl)cc2)[nH]c2ccccc12` the figure was 232 to 235 °C; with `Cc1c(Cc2ccc(C(C)C)cc2)c2c(c(C)c1NC(=O)CC(C)(C)C)C(C)CO2` (centres undefined), 185 to 186 °C; with `CC(c1oc2ccccc2c(=O)c1-c1cccc(F)c1)n1nc(-c2ccc(O)c(O)c2)c2c(N)ncnc21` (centres undefined), 193 to 195 °C.
`COc1cc(C(=O)c2ccnc3ccccc23)cc([N+](=O)[O-])c1O` yielded a melting point of 246 to 248 °C.
With `Clc1csc2c(Cl)cccc12` the figure was 100 to 102 °C; with `Cc1cnc(Cl)c(C(=O)N(C)C)c1`, 117 to 119 °C.
`O=C(Nc1ccc(F)cc1F)Nc1oc(=O)c2ccc(Cl)cc2c1-c1ccccc1` returned a melting point of 196 to 197 °C.
With `N#C[C@H]1CC(F)(F)CN1C(=O)CNC1(CO)CCC2(CCOCC2)CC1` the figure was 128 °C.
With `COCCOc1ccccc1S(=O)(=O)NC(=O)Nc1nc(C)nc(OC)n1` the figure was 134 to 138 °C; with `COC(=O)c1ccc(NN)c(Cl)c1`, 120 °C.
The result for `COC(=O)c1cnc(F)cn1` reads 55.6 to 56.7 °C; that for `O=C(Nc1cccc(S(=O)(=O)Nc2ccccc2)c1)c1cnn2c(C(F)F)cc(-c3ccc(C(F)(F)F)cc3)nc12`, 228 °C; that for `CC(C)(C)OC(=O)N1CCC(Nc2cccc(NC(=O)c3ccc(F)cc3)n2)CC1`, 82.7 °C.
Regarding `COc1ccc(S(=O)(=O)N2CSCC2=O)cc1`, the melting point was in the range of 129 to 130 °C.
The result for `CC(=O)c1cccc2c1ccn2C` reads 63 to 64 °C.
With `COC(=O)COc1ccc(C(=O)CC2CCN(c3ccncc3)CC2)cc1` the figure was 137 to 138 °C.
With `Cc1ccc2c(c1)Oc1ccc([N+](=O)[O-])cc1C(=O)N2C` the figure was 156 to 159 °C.
`Fc1ccc2c(CN3CCc4ccccc4C3)c[nH]c2c1`: the melting point was 144 to 145 °C.
With `CC(C)c1c(C(=O)c2cc(Cl)cc(Cl)c2)[nH]c(=O)[nH]c1=O` the figure was 252 to 253 °C; with `CC1(C)Oc2ccc(OCc3nc4cc(F)c(F)cc4s3)cc2[C@H](O)[C@@H]1c1cccc(NS(=O)(=O)C(F)(F)F)c1`, 191 to 193 °C; with `COc1ccc2c(c1)c1c3c(c(-c4ccccc4Cl)cc1n2C(C)=O)C(=O)NC3=O`, 277 to 280 °C.
The result for `CCC(CC)(COc1cc(C)c2nc(C)nn2n1)CS(N)(=O)=O` reads 159 to 160 °C.
With `CS(=O)(=O)c1ccc(/C=C2/C(=O)CCc3ccccc32)cc1`, the melting point was 152 to 153 °C.
On to `O=C(NS(=O)(=O)c1ccccc1)c1ccc(C=CC(=O)N2CCc3c([nH]c4ccccc34)C2c2ccc3c(c2)OCO3)cc1` (centres undefined), for which the melting point amounted to 134 °C.
The result for `CCNC(=O)N1CCc2ccc(S(=O)(=O)NC(=O)NC3CCCCC3)cc2CC1` reads 158 to 160 °C.
In turn, `Cc1nc(CCCCCCC(=O)O)c(C(=O)O)s1` yielded a melting point of 147 to 149 °C.
The result for `CC1=Cc2cc(F)c(F)cc2C1` reads 86 to 90 °C.
The result for `COCC1OC(n2cnc3c(N)nc(Cl)nc32)C(O)C1O` (centres undefined) reads 200 to 202 °C; that for `C=CCc1cc(C(N)=NO)ccc1O`, 144 °C; that for `Cn1c(-c2ccccc2)cc2onc(-c3ccccc3)c2c1=O`, 145 to 148 °C.
`O=CNc1ccccc1CCc1ccccn1` gave a melting point of 78 to 81 °C.
With `O=C(NC[C@H]1CC[C@H](C(=O)O)CC1)OCc1ccccc1` the figure was 114 to 116 °C.
The compound `CC(=O)c1ccc(OCc2ccccc2)cc1O` yielded a melting point of 107 to 108 °C.
The result for `N#CCCCN1C(=O)C(O)(c2cccc(Cl)c2)c2ccccc21` (centres undefined) reads 124 to 126 °C; that for `CCC(C)CNc1cccc(-c2ccnc3c(C(=O)c4cccs4)cnn23)c1` (centres undefined), 210 to 212 °C; that for `CCn1c(CCCO)nc(C(C)C)c1Sc1cc(Cl)cc(Cl)c1`, 73 °C.
The result for `O=C(O)CC1(C(=O)O)CCc2cc3ccccc3n2C1` (centres undefined) reads 185 to 188 °C; that for `C[C@H]1NC(C)(C)CO[C@]1(O)c1cccc(Cl)c1`, 128 to 131 °C; that for `[N-]=[N+]=NCc1nc2ccccc2n1Cc1ccccc1`, 108 to 110 °C.
With `CCn1c(C)c(C)cc(C(=O)O)c1=O` the figure was 164 to 165 °C.
For the compound `CN(C)C1CN(c2cc3nc4c(cc3cc2F)c(=O)c(C(=O)O)cn4C2CC2)C1`, the melting point was 264 °C.
With `CCCc1c(OCCCOc2ccc(C(=O)C(=O)O)cc2)ccc(C(C)=O)c1O` the figure was 129 to 130 °C; with `COc1cccc([C@@]23CCC[C@@H]2CN(C)CC3)c1` (relative stereo), 40 to 43 °C; with `C=CC(=O)NCC(C(C)=O)C(=O)c1ccccc1` (centres undefined), 125 to 126 °C.
The result for `Cc1c2ccccc2c(-c2ccc(O)cc2)c2c1sc1ccccc12` reads 184 to 185 °C; that for `CC(C)(C)OC(=O)N1CC[C@H](CNCc2ccccc2)[C@@H](O)C1`, 91 °C.
With `O=C(NCCN1CCN(c2cccc(Cl)c2)CC1)c1nsc2ccccc12` the figure was 115 to 117 °C.
`CC(C)(c1ccc(Oc2cccc(N)c2)cc1)c1cccc(C(C)(C)c2ccc(Oc3cccc(N)c3)cc2)c1` gave a melting point of 94 to 96 °C.
With `CC#CCCn1ncc2c(NC(=O)CC)c3c(nc21)CN(CCC)C3=O` the figure was 130 to 132 °C; with `CC(C)[C@H](NC(=O)c1ccc(Cn2nnc(-c3ccc(OC(=O)C(C)(C)C)cc3)n2)cc1)C(=O)OCc1ccccc1`, 157 to 159 °C.
With `CCCCCCCCCCCCCCCCc1nc(N(C)C)nc(OC)c1Br` the figure was 66 to 67 °C; with `C[C@H]1N=C(c2ccccc2F)c2cc(N)ccc2N(C)C1=O`, 224 to 226 °C.
With `c1ccc(N2CCN(CCc3nnn[nH]3)CC2)cc1` the figure was 190 to 194 °C; with `CCCc1c(OCCCOc2ccc(C#N)cc2Br)ccc(C(C)=O)c1O`, 88 to 89 °C.
As to `O=C(O)c1nc(Oc2cccc(C(F)(F)F)c2)ccc1Cl`, the melting point lay within 90 to 92 °C.
The result for `CC(=O)Nc1c(C(=O)c2occc2CO)[nH]c2cc(Cl)ccc12` reads 196 to 198 °C; that for `O=C(Nc1ccc(S(=O)(=O)Nc2ncccn2)cc1)c1ccccc1SSc1ccccc1C(=O)Nc1ccc(S(=O)(=O)Nc2ncccn2)cc1`, 280 °C; that for `NC(=O)c1cccnc1N1CCN(CC(O)CO)CC1` (centres undefined), 140 to 142 °C.
With `COc1cccc(-c2ccc3[nH]c4c(ccc5cc[nH]c54)c3c2)c1` the figure was 202 to 205 °C; with `O=C(C1CCCCO1)N1CCNCC1` (centres undefined), 53 to 58 °C.
With `CCOC(=O)c1ccc(-c2ccc(C#N)cc2)s1` the figure was 133 to 134 °C; with `CCNC(=O)n1nc(Oc2ncc(C(F)(F)F)cc2Cl)c(Br)c1C`, 123 to 125 °C; with `COc1ccc(N2C(=O)Cc3ccccc32)cc1F`, 133 to 136 °C.
`CS(=O)(=O)Nc1ccc(Cn2ncc(Cl)c(Cl)c2=O)cc1` displayed a melting point of 152 to 154 °C.
With `C#Cc1ccc(-c2nc(-c3ccccc3)nc(-c3ccc(C#C)cc3)n2)cc1` the figure was 215 °C; with `Cc1cccc(Nc2cc(Nc3ccc(OCCN(C)C)cc3)ncn2)c1`, 219 to 222 °C; with `CCN(CC)CCCOc1ccc(-c2cc3ccccc3o2)cc1`, 86 to 88 °C.
The result for `CC(C)Nc1ccccc1C(=O)O` reads 109 to 110 °C; that for `COc1nc2cccnc2n(-c2ccc(Cl)cc2)c1=O`, 242 to 243 °C; that for `COc1cccc2c(Cc3nc(CCc4ccccc4)co3)coc12`, 69 to 70 °C.
Turning to `COC(=O)C=C(C)NCc1ccccc1`, the melting point lay in the range of 36 to 37.5 °C.
The compound `COc1ccc(C(=O)N(C(=O)c2ccc(OC)cc2)c2nc3ccc(N(C)C)cc3c(NCc3cccs3)c2C#N)cc1` registered a melting point of 171 °C.
Compound `Cc1ncc([N+](=O)[O-])n1CCN1C(=O)c2ccccc2C1=O` returned a melting point of 177 °C.
The result for `CC(C)(c1ccc2ncccc2c1)n1nnc2ccc(-c3cn[nH]c3)nc21` reads 218 to 220 °C; that for `C=CCc1cc(C(=O)OCC)ccc1O`, 67 to 70 °C; that for `COC(=O)c1ccc(-c2n[nH]c3ccccc23)o1`, 157 to 159 °C.
The result for `O=C(O)Cc1ccc(OCCNC(=O)C2Cc3ccccc3N2S(=O)(=O)c2ccc(-c3cccc(C(F)(F)F)c3)cc2)c(Cl)c1` (centres undefined) reads 96 °C.
The result for `CCOC(=O)Nc1nc(C)c(-c2nc3ccccc3c(=O)n2-c2ccc(C)cc2)s1` reads 220 to 222 °C; that for `Cc1nn(C)c(-n2ccc3cc(Cl)ccc32)c1CCS(=O)(=O)NC(=O)OCC1CC1`, 170 °C; that for `Cc1cccc(-c2ccc(C(=O)Nc3ccc4cc(CN5CCCC5)cnc4c3C)cc2)c1`, 151 to 152 °C.
